Results as given in patent US10392391B2 (Vertex Pharmaceuticals Incorporated, priority 2012, dated 2019).

Biological target: ATR kinase (full-length ATR) (Homo sapiens (Human), UniProt Q13535)
Test: ATR inhibition assay (radioactive-phosphate incorporation)
Assay type: biochemical
Conditions: Ki(app), 5 nM full-length ATR, 10 μM ATP, 25° C.
How it was run: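 Radiometric 33P incorporation by 5 nM full-length ATR into 800 μM target peptide with 10 μM [γ-33P]ATP, in 50 mM Tris/HCl pH 7.5, 10 mM MgCl2, 1 mM DTT, 7% DMSO, 25° C. Compound pre-incubated 10 minutes; reaction stopped after 24 hours, captured on phosphocellulose. Ki(app) from non-linear regression of initial rates.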

Sequence of ATR kinase (full-length ATR) (Q13535 whole entry): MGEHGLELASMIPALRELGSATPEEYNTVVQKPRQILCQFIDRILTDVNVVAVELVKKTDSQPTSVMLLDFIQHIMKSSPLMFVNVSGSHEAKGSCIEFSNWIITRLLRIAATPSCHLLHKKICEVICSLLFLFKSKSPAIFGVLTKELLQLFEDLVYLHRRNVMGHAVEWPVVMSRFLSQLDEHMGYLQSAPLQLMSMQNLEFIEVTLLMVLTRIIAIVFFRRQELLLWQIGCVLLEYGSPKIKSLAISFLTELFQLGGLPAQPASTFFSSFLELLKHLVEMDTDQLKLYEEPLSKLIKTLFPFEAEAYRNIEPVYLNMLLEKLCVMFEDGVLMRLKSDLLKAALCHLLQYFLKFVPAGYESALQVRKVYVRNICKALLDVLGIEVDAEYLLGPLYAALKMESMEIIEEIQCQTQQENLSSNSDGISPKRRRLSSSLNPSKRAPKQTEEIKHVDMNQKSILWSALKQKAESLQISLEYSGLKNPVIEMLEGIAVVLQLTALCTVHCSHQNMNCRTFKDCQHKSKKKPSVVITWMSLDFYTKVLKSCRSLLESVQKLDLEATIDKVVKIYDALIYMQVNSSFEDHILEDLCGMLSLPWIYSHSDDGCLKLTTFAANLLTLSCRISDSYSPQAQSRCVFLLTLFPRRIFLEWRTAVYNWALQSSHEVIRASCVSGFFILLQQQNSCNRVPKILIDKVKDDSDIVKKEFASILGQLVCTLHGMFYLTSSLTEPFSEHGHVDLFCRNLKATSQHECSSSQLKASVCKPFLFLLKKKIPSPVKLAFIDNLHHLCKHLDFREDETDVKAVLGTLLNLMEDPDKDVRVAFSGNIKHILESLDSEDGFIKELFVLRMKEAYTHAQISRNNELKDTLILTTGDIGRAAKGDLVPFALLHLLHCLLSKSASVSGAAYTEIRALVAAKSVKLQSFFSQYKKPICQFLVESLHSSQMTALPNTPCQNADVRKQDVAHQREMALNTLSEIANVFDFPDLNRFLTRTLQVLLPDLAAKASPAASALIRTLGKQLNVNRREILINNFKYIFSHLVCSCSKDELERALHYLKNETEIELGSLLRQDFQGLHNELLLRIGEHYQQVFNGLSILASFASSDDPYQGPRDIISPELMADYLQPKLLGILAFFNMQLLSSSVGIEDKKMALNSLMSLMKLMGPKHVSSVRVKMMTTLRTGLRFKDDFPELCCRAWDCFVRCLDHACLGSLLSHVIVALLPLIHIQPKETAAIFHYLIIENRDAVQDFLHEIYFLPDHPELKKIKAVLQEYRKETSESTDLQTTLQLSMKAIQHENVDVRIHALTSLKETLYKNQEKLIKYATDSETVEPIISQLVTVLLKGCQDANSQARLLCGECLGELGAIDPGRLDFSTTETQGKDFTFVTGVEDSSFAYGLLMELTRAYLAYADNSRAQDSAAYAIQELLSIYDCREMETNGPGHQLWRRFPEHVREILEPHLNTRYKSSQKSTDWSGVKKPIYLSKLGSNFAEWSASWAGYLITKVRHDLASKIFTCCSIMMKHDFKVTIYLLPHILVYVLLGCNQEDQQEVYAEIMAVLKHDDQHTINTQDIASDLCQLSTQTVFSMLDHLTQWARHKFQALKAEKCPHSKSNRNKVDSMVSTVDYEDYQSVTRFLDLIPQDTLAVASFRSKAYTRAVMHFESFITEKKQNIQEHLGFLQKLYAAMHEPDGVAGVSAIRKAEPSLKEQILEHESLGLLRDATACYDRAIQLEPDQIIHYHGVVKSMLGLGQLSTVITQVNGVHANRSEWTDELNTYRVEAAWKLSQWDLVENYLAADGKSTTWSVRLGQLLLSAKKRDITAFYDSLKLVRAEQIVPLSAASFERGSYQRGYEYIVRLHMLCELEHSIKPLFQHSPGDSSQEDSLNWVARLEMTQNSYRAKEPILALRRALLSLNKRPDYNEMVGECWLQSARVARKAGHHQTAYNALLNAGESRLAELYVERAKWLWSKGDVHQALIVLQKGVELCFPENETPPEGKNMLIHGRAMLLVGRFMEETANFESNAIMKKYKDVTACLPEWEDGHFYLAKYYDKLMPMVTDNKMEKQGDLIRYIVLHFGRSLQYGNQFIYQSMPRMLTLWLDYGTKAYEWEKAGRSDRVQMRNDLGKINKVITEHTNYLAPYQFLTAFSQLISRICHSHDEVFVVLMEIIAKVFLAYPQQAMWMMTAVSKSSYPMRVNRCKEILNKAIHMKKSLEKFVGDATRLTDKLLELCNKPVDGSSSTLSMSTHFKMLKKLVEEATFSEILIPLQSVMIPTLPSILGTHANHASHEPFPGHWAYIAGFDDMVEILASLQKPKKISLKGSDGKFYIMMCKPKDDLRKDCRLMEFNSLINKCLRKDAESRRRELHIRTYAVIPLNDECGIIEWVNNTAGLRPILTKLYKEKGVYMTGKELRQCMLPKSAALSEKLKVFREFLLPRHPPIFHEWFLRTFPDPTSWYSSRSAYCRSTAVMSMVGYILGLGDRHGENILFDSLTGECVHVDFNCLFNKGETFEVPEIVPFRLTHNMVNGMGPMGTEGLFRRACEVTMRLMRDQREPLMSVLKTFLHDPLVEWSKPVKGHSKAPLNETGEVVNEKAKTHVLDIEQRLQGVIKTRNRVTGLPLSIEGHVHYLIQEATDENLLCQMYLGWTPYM

SMILES | Ki
Nc1nn2cc(F)cnc2c1C(=O)Nc1cncc(F)c1N1CCN2C(=O)CCC[C@H]2C1 [I-N-279, (S)-2-amino-6-fluoro-N-(5-fluoro-4-(6-oxohexahydro-1H-pyrido[1,2-a]pyrazin-2(6H)-yl)pyridin-3-yl)pyrazolo[1,5-a]pyrimidine-3-carboxamide] | 10 to 1000 nM
CN1CCC(Oc2ccncc2NC(=O)c2c(N)nn3cc(CC#N)cnc23)CC1 [I-O-23, 2-amino-6-(cyanomethyl)-N-(4-((1-methylpiperidin-4-yl)oxy)pyridin-3-yl)pyrazolo[1,5-a]pyrimidine-3-carboxamide] | 10 to 1000 nM
Nc1nn2cc(F)cnc2c1C(=O)Nc1cnccc1N1CCN(S(=O)(=O)C2CCOCC2)CC1 [I-N-177, 2-amino-6-fluoro-N-(4-(4-((tetrahydro-2H-pyran-4-yl)sulfonyl)piperazin-1-yl)pyridin-3-yl)pyrazolo[1,5-a]pyrimidine-3-carboxamide] | 10 to 1000 nM
Cc1cncc(NC(=O)c2c(N)nn3cc(F)cnc23)c1N1CCN(C2CCOCC2)CC1 [I-N-123, 2-amino-6-fluoro-N-(5-methyl-4-(4-(tetrahydro-2H-pyran-4-yl)piperazin-1-yl)pyridin-3-yl)pyrazolo[1,5-a]pyrimidine-3-carboxamide] | 10 to 1000 nM
CO[C@@H]1CCN(C(=O)C2CCN(c3ccncc3NC(=O)c3c(N)nn4cc(F)cnc34)CC2)C1 [I-G-93, (R)-2-amino-6-fluoro-N-(4-(4-(3-methoxypyrrolidine-1-carbonyl)piperidin-1-yl)pyridin-3-yl)pyrazolo[1,5-a]pyrimidine-3-carboxamide] | 10 to 1000 nM
Nc1nn2cc(F)cnc2c1C(=O)Nc1cncc(F)c1C1=CCN(C2COC2)CC1 [I-C-12, 2-amino-6-fluoro-N-(5-fluoro-1′-(oxetan-3-yl)-1′,2′,3′,6′-tetrahydro-[4,4′-bipyridin]-3-yl)pyrazolo[1,5-a]pyrimidine-3-carboxamide] | 10 to 1000 nM
CC(=O)N1CC2(CCN(c3ccncc3NC(=O)c3c(N)nn4cc(F)cnc34)CC2)C1 [I-N-251, N-(4-(2-acetyl-2,7-diazaspiro[3.5]nonan-7-yl)pyridin-3-yl)-2-amino-6-fluoropyrazolo[1,5-a]pyrimidine-3-carboxamide] | 10 to 1000 nM
COC1CN(C2CCN(c3ccncc3NC(=O)c3c(N)nn4cc(Cl)cnc34)CC2)C1 [I-N-107, 2-amino-6-chloro-N-(4-(4-(3-methoxyazetidin-1-yl)piperidin-1-yl)pyridin-3-yl)pyrazolo[1,5-a]pyrimidine-3-carboxamide] | 10 to 1000 nM
CC1(N2CCN(c3ccncc3NC(=O)c3c(N)nn4cc(F)cnc34)CC2)COC1 [I-N-62, 2-amino-6-fluoro-N-(4-(4-(3-methyloxetan-3-yl)piperazin-1-yl)pyridin-3-yl)pyrazolo[1,5-a]pyrimidine-3-carboxamide] | 10 to 1000 nM
N#CCc1cnc2c(C(=O)Nc3cnccc3O[C@H]3CCOC3)c(N)nn2c1 [I-O-42, (S)-2-amino-6-(cyanomethyl)-N-(4-((tetrahydrofuran-3-yl)oxy)pyridin-3-yl)pyrazolo[1,5-a]pyrimidine-3-carboxamide] | < 10 nM
Cc1nc(C)n(-c2ccncc2NC(=O)c2c(N)nn3cc(F)cnc23)n1 [I-N-218, 2-amino-N-(4-(3,5-dimethyl-1H-1,2,4-triazol-1-yl)pyridin-3-yl)-6-fluoropyrazolo[1,5-a]pyrimidine-3-carboxamide] | 10 to 1000 nM
Nc1nn2cc(F)cnc2c1C(=O)Nc1cncc(F)c1N1CCC(C(=O)N2CC(N3CCC3)C2)CC1 [I-G-49, N-(4-(4-([1,3′-biazetidine]-1′-carbonyl)piperidin-1-yl)-5-fluoropyridin-3-yl)-2-amino-6-fluoropyrazolo[1,5-a]pyrimidine-3-carboxamide] | 10 to 1000 nM
Cc1ncn(-c2ccncc2NC(=O)c2c(N)nn3cc(F)cnc23)c1C [I-N-269, 2-amino-N-(4-(4,5-dimethyl-1H-imidazol-1-yl)pyridin-3-yl)-6-fluoropyrazolo[1,5-a]pyrimidine-3-carboxamide] | 10 to 1000 nM
Nc1nn2cc(Cl)cnc2c1C(=O)Nc1cnccc1N1CCC(N2CCn3cncc3C2)CC1 [I-N-101, 2-amino-6-chloro-N-(4-(4-(5,6-dihydroimidazo[1,5-a]pyrazin-7(81-1)-yl)piperidin-1-yl)pyridin-3-yl)pyrazolo[1,5-a]pyrimidine-3-carboxamide] | 10 to 1000 nM
COCCN1CCC[C@H](Oc2ccncc2NC(=O)c2c(N)nn3cc(Cl)cnc23)C1 [I-O-67, (S)-2-amino-6-chloro-N-(4-((1-(2-methoxyethyl)piperidin-3-yl)oxy)pyridin-3-yl)pyrazolo[1,5-a]pyrimidine-3-carboxamide] | 10 to 1000 nM
CCOC1CN(C(=O)C2CCN(c3ccncc3NC(=O)c3c(N)nn4cc(F)cnc34)CC2)C1 [I-G-91, 2-amino-N-(4-(4-(3-ethoxyazetidine-1-carbonyl)piperidin-1-yl)pyridin-3-yl)-6-fluoropyrazolo[1,5-a]pyrimidine-3-carboxamide] | 10 to 1000 nM
CN1CCN(C(=O)c2ccc(-c3ccncc3NC(=O)c3c(N)nn4cc(F)cnc34)cn2)CC1 [I-C-19, 2-amino-6-fluoro-N-(6-(4-methylpiperazine-1-carbonyl)-[3,4′-bipyridin]-3′-yl)pyrazolo[1,5-a]pyrimidine-3-carboxamide] | 10 to 1000 nM

SMILES | Ki
C[C@H]1CN(C2COC2)CCN1c1ccncc1NC(=O)c1c(N)nn2cc(F)cnc12 [I-N-24, (S)-2-amino-6-fluoro-N-(4-(2-methyl-4-(oxetan-3-yl)piperazin-1-yl)pyridin-3-yl)pyrazolo[1,5-a]pyrimidine-3-carboxamide] | 10 to 1000 nM
Nc1nn2cc(F)cnc2c1C(=O)Nc1cncc(F)c1N1CCN(C(=O)C2CCN(C3COC3)CC2)CC1 [I-N-211, 2-amino-6-fluoro-N-(5-fluoro-4-(4-(1-(oxetan-3-yl)piperidine-4-carbonyl)piperazin-1-yl)pyridin-3-yl)pyrazolo[1,5-a]pyrimidine-3-carboxamide] | 10 to 1000 nM
Nc1nn2cc(F)cnc2c1C(=O)Nc1cncc(F)c1N1CCN(S(=O)(=O)C2CCOCC2)CC1 [I-N-158, 2-amino-6-fluoro-N-(5-fluoro-4-(4-((tetrahydro-2H-pyran-4-yl)sulfonyl)piperazin-1-yl)pyridin-3-yl)pyrazolo[1,5-a]pyrimidine-3-carboxamide] | 10 to 1000 nM
Nc1nn2cc(Cl)cnc2c1C(=O)Nc1cnccc1-n1ccnc1 [I-N-29, N-(4-(1H-imidazol-1-yl)pyridin-3-yl)-2-amino-6-chloropyrazolo[1,5-a]pyrimidine-3-carboxamide] | 10 to 1000 nM
CN1CCOC2(CCN(c3ccncc3NC(=O)c3c(N)nn4cc(F)cnc34)CC2)C1 [I-N-183, 2-amino-6-fluoro-N-(4-(4-methyl-1-oxa-4,9-diazaspiro[5.5]undecan-9-yl)pyridin-3-yl)pyrazolo[1,5-a]pyrimidine-3-carboxamide] | 10 to 1000 nM
Cc1cncn1-c1ccncc1NC(=O)c1c(N)nn2cc(F)cnc12 [I-N-283, 2-amino-6-fluoro-N-(4-(5-methyl-1H-imidazol-1-yl)pyridin-3-yl)pyrazolo[1,5-a]pyrimidine-3-carboxamide] | 10 to 1000 nM
Nc1nn2cc(F)cnc2c1C(=O)Nc1cncc(C2CC2)c1N1CCN([C@@H]2CCOC2)CC1 [I-N-119, (R)-2-amino-N-(5-cyclopropyl-4-(4-(tetrahydrofuran-3-yl)piperazin-1-yl)pyridin-3-yl)-6-fluoropyrazolo[1,5-a]pyrimidine-3-carboxamide] | 10 to 1000 nM
Nc1nn2cc(F)cnc2c1C(=O)Nc1cnccc1-c1cccnc1 [I-C-15, N-([3,4′-bipyridin]-3′-yl)-2-amino-6-fluoropyrazolo[1,5-a]pyrimidine-3-carboxamide] | 10 to 1000 nM
Nc1nn2cc(F)cnc2c1C(=O)Nc1cncc(F)c1N1CCC(C(=O)N2CCN(C3CC3)CC2)CC1 [I-G-13, 2-amino-N-(4-(4-(4-cyclopropylpiperazine-1-carbonyl)piperidin-1-yl)-5-fluoropyridin-3-yl)-6-fluoropyrazolo[1,5-a]pyrimidine-3-carboxamide] | 10 to 1000 nM
CN(C)CCOc1ccncc1NC(=O)c1c(N)nn2cc(CC#N)cnc12 [I-O-24, 2-amino-6-(cyanomethyl)-N-(4-(2-(dimethylamino)ethoxy)pyridin-3-yl)pyrazolo[1,5-a]pyrimidine-3-carboxamide] | < 10 nM
Cc1nccnc1-c1ccncc1NC(=O)c1c(N)nn2cc(F)cnc12 [I-C-62, 2-amino-6-fluoro-N-(4-(3-methylpyrazin-2-yl)pyridin-3-yl)pyrazolo[1,5-a]pyrimidine-3-carboxamide] | 10 to 1000 nM
CC(C)(C)NC(=O)C1CCN(c2c(F)cncc2NC(=O)c2c(N)nn3cc(F)cnc23)CC1 [I-G-19, 2-amino-N-(4-(4-(tert-butylcarbamoyl)piperidin-1-yl)-5-fluoropyridin-3-yl)-6-fluoropyrazolo[1,5-a]pyrimidine-3-carboxamide] | 10 to 1000 nM
Nc1nn2cc(F)cnc2c1C(=O)Nc1cncc(F)c1N1CCN(CC(=O)N2CCC2)CC1 [I-N-228, 2-amino-N-(4-(4-(2-(azetidin-1-yl)-2-oxoethyl)piperazin-1-yl)-5-fluoropyridin-3-yl)-6-fluoropyrazolo[1,5-a]pyrimidine-3-carboxamide] | 10 to 1000 nM
Nc1nn2cc(F)cnc2c1C(=O)Nc1cnccc1N1CCN2C(=O)COCC2C1 (stereo not drawn) [I-N-136, 2-amino-6-fluoro-N-(4-(4-oxohexahydropyrazino[2,1-c][1,4]oxazin-8(1H)-yl)pyridin-3-yl)pyrazolo[1,5-a]pyrimidine-3-carboxamide] | 10 to 1000 nM
CN(C)C(=O)C1CCCN(c2ccncc2NC(=O)c2c(N)nn3cc(F)cnc23)C1 (stereo not drawn) [I-N-290, 2-amino-N-(4-(3-(dimethylcarbamoyl)piperidin-1-yl)pyridin-3-yl)-6-fluoropyrazolo[1,5-a]pyrimidine-3-carboxamide] | 10 to 1000 nM
Nc1nn2cc(F)cnc2c1C(=O)Nc1cnccc1O[C@H]1Cc2nccn2C1 [I-O-16, (S)-2-amino-N-(4-((6,7-dihydro-5H-pyrrolo[1,2-a]imidazol-6-yl)oxy)pyridin-3-yl)-6-fluoropyrazolo[1,5-a]pyrimidine-3-carboxamide] | 10 to 1000 nM
